Our source for the IC50 values is US20260317298A1, “Cereblon Ligands and Uses Thereof” (REGENTS OF THE UNIVERSITY OF MICHIGAN, priority 2022, published 2026).

The structures appear in SMILES notation. Counter-ions that a name gives are not always drawn.

The target in the test is CRBN/DDB1 (Homo sapiens, UniProt Q96SW2). Briefly: biochemical.
Chain of CRBN/DDB1 (Q96SW2 whole entry): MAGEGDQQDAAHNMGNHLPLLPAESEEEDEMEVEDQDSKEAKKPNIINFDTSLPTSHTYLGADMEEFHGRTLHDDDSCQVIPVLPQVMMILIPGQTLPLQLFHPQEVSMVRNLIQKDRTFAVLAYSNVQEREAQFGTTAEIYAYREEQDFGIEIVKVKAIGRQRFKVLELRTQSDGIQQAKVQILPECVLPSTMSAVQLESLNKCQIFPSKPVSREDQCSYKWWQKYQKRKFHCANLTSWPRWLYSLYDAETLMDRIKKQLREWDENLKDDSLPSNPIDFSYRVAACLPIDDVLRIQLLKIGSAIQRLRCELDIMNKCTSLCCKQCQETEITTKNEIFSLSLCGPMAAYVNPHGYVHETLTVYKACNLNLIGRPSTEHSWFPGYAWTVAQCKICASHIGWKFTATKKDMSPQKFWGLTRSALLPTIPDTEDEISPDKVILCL
Chain of CRBN/DDB1 (Q16531 whole entry partner): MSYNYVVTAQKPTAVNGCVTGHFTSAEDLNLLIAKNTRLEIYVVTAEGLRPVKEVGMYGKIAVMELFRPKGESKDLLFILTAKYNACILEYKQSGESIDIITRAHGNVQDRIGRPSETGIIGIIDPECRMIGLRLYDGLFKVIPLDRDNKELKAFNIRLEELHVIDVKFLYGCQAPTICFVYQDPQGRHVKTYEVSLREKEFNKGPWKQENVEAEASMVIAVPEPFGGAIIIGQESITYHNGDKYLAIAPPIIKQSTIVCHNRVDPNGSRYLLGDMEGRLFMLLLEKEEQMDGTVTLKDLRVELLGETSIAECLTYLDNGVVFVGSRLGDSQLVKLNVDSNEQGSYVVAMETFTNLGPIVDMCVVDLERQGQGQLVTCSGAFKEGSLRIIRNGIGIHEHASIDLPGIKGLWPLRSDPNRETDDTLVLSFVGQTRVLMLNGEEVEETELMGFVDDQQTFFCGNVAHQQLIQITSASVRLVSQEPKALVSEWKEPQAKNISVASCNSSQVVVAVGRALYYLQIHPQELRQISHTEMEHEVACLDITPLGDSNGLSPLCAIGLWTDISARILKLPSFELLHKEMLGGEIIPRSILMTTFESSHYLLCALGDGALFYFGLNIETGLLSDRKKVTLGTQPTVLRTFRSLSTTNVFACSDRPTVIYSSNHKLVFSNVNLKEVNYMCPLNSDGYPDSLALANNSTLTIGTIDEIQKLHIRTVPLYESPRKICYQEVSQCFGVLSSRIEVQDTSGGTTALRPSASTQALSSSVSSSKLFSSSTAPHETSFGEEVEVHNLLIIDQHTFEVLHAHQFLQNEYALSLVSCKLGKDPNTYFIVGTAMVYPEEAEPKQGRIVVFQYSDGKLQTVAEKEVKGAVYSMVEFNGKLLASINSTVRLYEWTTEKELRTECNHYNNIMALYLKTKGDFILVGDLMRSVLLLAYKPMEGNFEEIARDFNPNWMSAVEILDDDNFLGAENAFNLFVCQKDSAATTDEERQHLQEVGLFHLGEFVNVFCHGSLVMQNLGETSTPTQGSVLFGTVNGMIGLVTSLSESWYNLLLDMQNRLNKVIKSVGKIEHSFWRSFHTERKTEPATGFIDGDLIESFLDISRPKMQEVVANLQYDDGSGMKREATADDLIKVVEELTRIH

Procedure: The CRBN−DDB1 binding potency of the present disclosure was determined using HTRF assay technology (Perkin Elmer). Compounds are serially diluted and are transferred multi-well plate. The reaction was conducted with addition of His tagged (e.g., CRBN+DDB-DLS7+CXU4) followed by addition of fluorescent probe (e.g., Cy5-labeled Thalidomide), and MAb Anti-6HIS Tb cryptate Gold in the assay buffer. After certain period of incubation at room temperature, the HTRF signals were read on a reader.
The binding potency was determined using HTRF assay technology (Perkin Elmer). Compounds were serially diluted in DMSO and 0.2 μL volume was transferred to white 384-well plate. […] After one hour incubation at room temperature, the HTRF signals were read on Envision reader (Perkin Elemer). Data was analyzed using XLfit using four parameters dose response curve to determine IC50s.

The IC50 is the concentration that inhibits the measured activity by half. As for `O=C1CCC(Nc2ccc3c(c2)OCC32CCNCC2)C(=O)N1` (stereo in doubt) [Compound 12, (S)-3-((2H-spiro[benzofuran-3,4′-piperidin]-6-yl)amino)piperidine-2,6-dione], the IC50 was 500 to 5000 nM. `O=C1CCC(Nc2ccc3c(c2)OCC32CCNCC2(F)F)C(=O)N1` (centres unmarked) [Compound 16, 3-((3′,3′-difluoro-2H-spiro[benzofuran-3,4′-piperidin]-6-yl)amino)piperidine-2,6-dione] yielded an IC50 of 500 to 5000 nM.

`O=C1CC[C@H](Nc2ccc([C@@]34CCNC[C@@H]3C4(F)F)cc2)C(=O)N1` (single isomer, unassigned) [Compound 1] returned an IC50 of 500 to 5000 nM. As for `O=C1CCC2(CC1)COc1cc(NC3CCC(=O)NC3=O)ccc12` (centres unmarked) [Compound 17, 3-((4′-oxo-2H-spiro[benzofuran-3,1′-cyclohexan]-6-yl)amino)piperidine-2,6-dione], the IC50 lay in the range of 500 to 5000 nM. For `O=C1CCC(Nc2cc(F)c3c(c2)OCC32CCNCC2)C(=O)N1` (centres unmarked) [Compound 19, 3-((4-fluoro-2H-spiro[benzofuran-3,4′-piperidin]-6-yl)amino)piperidine-2,6-dione HCl salt] the value was 50 to 500 nM. `O=C1CCC(Nc2ccc3c(c2)OCC32CCNCC2)C(=O)N1` (stereo in doubt) [Compound 11, (R)-3-((2H-spiro[benzofuran-3,4′-piperidin]-6-yl)amino)piperidine-2,6-dione] yielded an IC50 of 50 to 500 nM. Take `Cc1cc([C@]23CCNC[C@H]2C3(F)F)ccc1N[C@@H]1CCC(=O)NC1=O` [Compound 9, (R)-3-((4-((1S,6S)-7,7-difluoro-3-azabicyclo[4.1.0]heptan-6-yl)-2-methylphenyl)amino)piperidine-2,6-dione]: the half-maximal inhibitory concentration (IC50) fell in the range of 500 to 5000 nM. For `O=C1CC[C@@H](Nc2ccc([C@]34CCNC[C@H]3C4(F)F)cc2)C(=O)N1` [Compound 3, (R)-3-((4-((1S,6S)-7,7-difluoro-3-azabicyclo[4.1.0]heptan-6-yl)phenyl)amino)piperidine-2,6-dione] the value was 500 to 5000 nM. As for `O=C1CC[C@@H](Nc2ccc([C@@]34CCNC[C@@H]3C4(F)F)cc2)C(=O)N1` (single isomer, unassigned) [Compound 2], the half-maximal inhibitory concentration (IC50) was 500 to 5000 nM. The molecule `O=C1CC[C@H](Oc2ccc3c(c2)OCC32CCNCC2)C(=O)N1` [Compound 6, (S)-3-((2H-spiro[benzofuran-3,4′-piperidin]-6-yl)oxy)piperidine-2,6-dione] showed an IC50 of 500 to 5000 nM. The molecule `O=C1CCC(Nc2cc3c(cc2F)C2(CCNCC2)CO3)C(=O)N1` (centres unmarked) [Compound 18, 3-((5-fluoro-2H-spiro[benzofuran-3,4′-piperidin]-6-yl)amino)piperidine-2,6-dione HCl salt] displayed an IC50 of 500 to 5000 nM. `O=C1CC[C@H](Nc2ccc([C@]34CCNC[C@H]3C4(F)F)cc2)C(=O)N1` [Compound 4, (S)-3-((4-((1S,6S)-7,7-difluoro-3-azabicyclo[4.1.0]heptan-6-yl)phenyl)amino)piperidine-2,6-dione] registered an IC50 of 500 to 5000 nM.

`O=C1CC[C@@H](Oc2ccc3c(c2)OCC32CCNCC2)C(=O)N1` [Compound 5, (R)-3-((2H-spiro[benzofuran-3,4′-piperidin]-6-yl)oxy)piperidine-2,6-dione]: the IC50 is 500 to 5000 nM. On to `Cc1cc([C@@]23CCNC[C@@H]2C3(F)F)ccc1N[C@@H]1CCC(=O)NC1=O` [Compound 7, (R)-3-((4-((1R,6R)-7,7-difluoro-3-azabicyclo[4.1.0]heptan-6-yl)-2-methylphenyl)amino)piperidine-2,6-dione], for which the half-maximal inhibitory concentration (IC50) was more than 5000 nM.

For `Cc1cc([C@]23CCNC[C@H]2C3(F)F)ccc1N[C@H]1CCC(=O)NC1=O` [Compound 10, (S)-3-((4-((1S,6S)-7,7-difluoro-3-azabicyclo[4.1.0]heptan-6-yl)-2-methylphenyl)amino)piperidine-2,6-dione], the IC50 was more than 5000 nM. Turning to `O=C1CCC(Nc2ccc3c(c2)COC32CCNCC2)C(=O)N1` (centres unmarked) [Compound 15, 3-((3H-spiro[isobenzofuran-1,4′-piperidin]-5-yl)amino)piperidine-2,6-dione HCO2H salt], the IC50 fell in the range of 500 to 5000 nM. With `Cc1cc([C@@]23CCNC[C@@H]2C3(F)F)ccc1N[C@H]1CCC(=O)NC1=O` [Compound 8, (S)-3-((4-((1R,6R)-7,7-difluoro-3-azabicyclo[4.1.0]heptan-6-yl)-2-methylphenyl)amino)piperidine-2,6-dione], the IC50 was 500 to 5000 nM.
